{"source": "paper PMC11440508", "about": "“Dually Labeled Neurotensin NTS1R Ligands for Probing Radiochemical and Fluorescence-Based Binding Assays” (Journal of Medicinal Chemistry, 2024)", "assay": "Radiochemical purity after storage (RP-HPLC)", "format": "physicochemical", "conditions": "stock solution, degradation by radiolysis", "description": "Figure 2 (A) Radiochemical purities (>99%) of [^3H]13 and [^3H]18 directly after synthesis determined by RP-HPLC analysis. (B) Radiochemical purities of [^3H]13 and [^3H]18 determined 11 months after synthesis. The purities amounted to 92% ([^3H]13) and 80% ([^3H]18).\nOver a period of 11 months, degradation of both dually labeled ligands by radiolysis was low (Figure 2B).\nA solution of succinimidyl [^3H]propionate (molar activity: 3.89 TBq/mmol, purchased from Novandi, Södertälje, Sweden) (55.5 MBq, 0.75 mL, 14.3 nmol) in n-heptane/EtOAc 3:2 v/v was transferred from the delivered ampule into a 1.5 mL polypropylene reaction vessel with screw cap, and the solvent was removed in a vacuum concentrator (30 °C, ca. 30 min). […] To quantify the activity of the two radioligands and to determine the molar concentration, 2 × 2 μL of the preliminary stock solution were added to 998 μL of DMSO/H2O 3:7 v/v, and 4 × 10 μL of these dilutions were counted in 3 mL of liquid scintillator (Rotiscint Eco Plus, Carl Roth, Karlsruhe, Germany) with a Tri-Carb 3100TR liquid scintillation counter (PerkinElmer). […] The molar activity of the labeling reagent succinimidyl [^3H]propionate was determined by liquid chromatography–mass spectrometry (LC-MS) analysis. Coinjection of “cold” succinimidyl propionate allowed the quantification of the incorporated tritium (Novandi, Södertälje, Sweden). […]"}
{"smiles": "CCC(=O)NCCCCNC(=O)NC(=N)NCCC[C@H](NC(=O)[C@@H]1CCCN1C(=O)[C@@H](NC(=O)CCc1cn(CCCNC(=O)c2ccc(-c3c4ccc(=[N+](C)C)cc-4oc4cc(N(C)C)ccc34)c(C(=O)[O-])c2)nn1)C1CCNCC1)C(=O)N[C@@H](CCCNC(=N)N)C(=O)N1CCC[C@H]1C(=O)N[C@@H](Cc1ccc(O)cc1)C(=O)N[C@H](C(=O)N[C@@H](CC(C)C)C(=O)O)[C@@H](C)CC", "note": "[[^3H]13]", "values": [{"measurement": "Radiochemical purity 11 months after synthesis", "value": 92, "unit": "%"}]}
